# Measured values from patent US8343976B2, “Compounds, compositions and methods comprising pyrazole derivatives” (Institute for OneWorld Health, priority 2009, dated 2013).
# Molecular target: T1, CFTR (Homo sapiens, UniProt P13569)
# T1 construct: results in the phosphorylation and opening of CFTR anion channels; host or cells: Human colonic T84 cells
# Experiment: T84 assay (FLIPR membrane potential dye, forskolin/IBMX-stimulated CFTR channel activity)
# Format: cell-based
# Settings: Human colonic T84 cells; 10 μM forskolin + 100 μM IBMX; average of at least 2 runs unless marked n = 1
# Protocol: (§1) For example, Human colonic T84 cells can be acquired from the European Collection of Cell Cultures (ECACC) and grown in standard culture conditions as described by the supplier. On the day before assay 25,000 T84 cells per well are plated into standard black walled, clear bottom 384-well assay plates in standard growth medium consisting of DMEM:F12 with 10% FBS and incubated overnight. On the day of the assay the plates are washed using a standard assay buffer (HBSS with 10 mM Hepes) and incubated for 15 minutes in serum free cell culture medium before the addition of a commercially available membrane potential sensitive fluorescent dye (FLIPR Red membrane potential dye, Molecular Devices Corporation). T84 cells are incubated with the FLIPR Red membrane potential dye for 45 minutes in the presence and absence of test compound before being transferred to a commercially available fluorescence imaging plate reader (FLIPR384, Molecular Devices Corporation). Fluorescence levels are monitored continuously every second for 150 seconds; after an initial 10 second baseline, CFTR channel activity is stimulated through the addition of 10 μM forskolin in the presence of 100 μM of the phosphodiesterase inhibitor iso-butylmethylxanthine (IBMX). Addition of the forskolin leads to the activation of intracellular adenylyl cylase 1, elevating cAMP levels and results in the phosphorylation and opening of CFTR anion channels. CFTR channel opening causes chloride ion efflux and subsequent depolarization of the cells, which is measured by an increase in fluorescence. CFTR inhibitor compounds prevent cell depolarization and the associated increase in fluorescence.
# as §1, with “Human colonic” for “For example, Human colonic”, “T84 cells are acquired from” for “T84 cells can be acquired from”, “(ECACC) and are grown in” for “(ECACC) and grown in”
# T1 sequence (P13569 whole entry): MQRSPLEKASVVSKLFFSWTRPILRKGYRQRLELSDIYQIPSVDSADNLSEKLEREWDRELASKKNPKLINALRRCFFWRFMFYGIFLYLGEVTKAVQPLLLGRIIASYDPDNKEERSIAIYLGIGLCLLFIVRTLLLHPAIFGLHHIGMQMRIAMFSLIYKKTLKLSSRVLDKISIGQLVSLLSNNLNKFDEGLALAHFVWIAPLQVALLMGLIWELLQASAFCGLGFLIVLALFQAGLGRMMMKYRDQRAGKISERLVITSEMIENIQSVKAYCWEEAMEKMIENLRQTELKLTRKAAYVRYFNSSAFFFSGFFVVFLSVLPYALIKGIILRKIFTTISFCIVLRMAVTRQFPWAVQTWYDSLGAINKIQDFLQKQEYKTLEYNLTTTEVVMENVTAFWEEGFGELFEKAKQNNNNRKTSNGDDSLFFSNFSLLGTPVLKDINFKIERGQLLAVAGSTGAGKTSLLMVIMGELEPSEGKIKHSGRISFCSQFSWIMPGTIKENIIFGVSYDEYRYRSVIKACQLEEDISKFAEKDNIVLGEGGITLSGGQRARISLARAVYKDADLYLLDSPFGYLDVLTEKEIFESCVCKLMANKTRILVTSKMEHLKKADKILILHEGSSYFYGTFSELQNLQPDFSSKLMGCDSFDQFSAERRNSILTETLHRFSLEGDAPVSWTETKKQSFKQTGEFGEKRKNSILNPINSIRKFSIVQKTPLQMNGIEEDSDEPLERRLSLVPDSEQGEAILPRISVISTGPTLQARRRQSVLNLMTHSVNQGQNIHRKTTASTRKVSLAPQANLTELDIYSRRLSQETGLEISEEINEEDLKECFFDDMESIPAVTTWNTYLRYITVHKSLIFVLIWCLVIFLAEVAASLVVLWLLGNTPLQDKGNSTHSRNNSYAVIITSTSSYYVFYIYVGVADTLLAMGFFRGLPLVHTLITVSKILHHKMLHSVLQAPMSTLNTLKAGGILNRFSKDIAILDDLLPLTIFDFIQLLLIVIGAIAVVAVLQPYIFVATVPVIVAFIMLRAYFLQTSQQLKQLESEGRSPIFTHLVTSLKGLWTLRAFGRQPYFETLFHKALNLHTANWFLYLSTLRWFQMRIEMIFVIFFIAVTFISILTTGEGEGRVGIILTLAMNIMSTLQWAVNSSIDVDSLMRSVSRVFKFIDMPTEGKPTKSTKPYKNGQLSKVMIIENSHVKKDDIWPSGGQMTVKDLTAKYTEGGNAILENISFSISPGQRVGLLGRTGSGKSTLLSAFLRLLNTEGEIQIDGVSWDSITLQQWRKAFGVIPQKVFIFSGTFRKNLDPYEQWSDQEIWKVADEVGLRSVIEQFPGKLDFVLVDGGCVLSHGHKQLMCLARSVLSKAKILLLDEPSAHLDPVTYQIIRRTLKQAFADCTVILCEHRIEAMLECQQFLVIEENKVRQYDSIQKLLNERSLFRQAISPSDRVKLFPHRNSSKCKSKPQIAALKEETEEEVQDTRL
row,IC50 [µM],SMILES
1,29.8,"O=C(NCc1ccc(F)c(C(F)(F)F)c1)c1cc(-c2cc(Cl)c(O)c(Cl)c2)n[nH]1 [Compound 9, 3-(3,5-dichloro-4-hydroxyphenyl)-N-(4-fluoro-3-(trifluoromethyl)benzyl)-1H-pyrazole-5-carboxamide]"
2,21.1,"CN(Cc1ccc(Oc2ccccc2)cc1)C(=O)c1cc(-c2cc(Cl)c(O)c(Cl)c2)n[nH]1 [Compound 4, 3-(3,5-dichloro-4-hydroxyphenyl)-N-methyl-N-(4-phenoxybenzyl)-1H-pyrazole-5-carboxamide]"
3,3.46,"O=C(NCCC(c1ccccc1)c1ccccc1)c1cc(-c2cc(Cl)c(O)c(Cl)c2)n[nH]1 [Compound 3, 3-(3,5-dichloro-4-hydroxyphenyl)-N-(3,3-diphenylpropyl)-1H-pyrazole-5-carboxamide]"
4,18.7,"O=C(NCc1cccc(OC(F)(F)F)c1)c1cc(-c2cc(Cl)c(O)c(Cl)c2)n[nH]1 [Compound 2, 3-(3,5-dichloro-4-hydroxyphenyl)-N-(3-(trifluoromethoxy)benzyl)-1H-pyrazole-5-carboxamide]"
5,29.5,"O=C(NCc1ccc(Cl)c(Cl)c1)c1cc(-c2cc(Cl)c(O)c(Cl)c2)n[nH]1 [Compound 5, 3-(3,5-dichloro-4-hydroxyphenyl)-N-(3,4-dichlorobenzyl)-1H-pyrazole-5-carboxamide]"
6,29.6,"O=C(c1cc(-c2cc(Cl)c(O)c(Cl)c2)n[nH]1)N1CCN(c2cccc(C(F)(F)F)c2)CC1 [Compound 10, (3-(3,5-dichloro-4-hydroxyphenyl)-1H-pyrazol-5-yl)(4-(3-(trifluoromethyl)phenyl)piperazin-1-yl)methanone]"
7,21,"CN(Cc1ccc(Oc2ccccn2)cc1)C(=O)c1cc(-c2cc(Cl)c(O)c(Cl)c2)n[nH]1 [Compound 7, 3-(3,5-dichloro-4-hydroxyphenyl)-N-methyl-N-(4-(pyridin-2-yloxy)benzyl)-1H-pyrazole-5-carboxamide]"
8,9.06,"CN(Cc1cccc(C(F)(F)F)c1)C(=O)c1cc(-c2cc(Cl)c(O)c(Cl)c2)n[nH]1 [Compound 1, 3-(3,5-dichloro-4-hydroxyphenyl)-N-methyl-N-(3-(trifluoromethyl)benzyl)-1H-pyrazole-5-carboxamide]"
9,17.4,"CC(C)(C)c1ccc(CNC(=O)c2cc(-c3cc(Cl)c(O)c(Cl)c3)n[nH]2)cc1 [Compound 6, N-(4-tert-butylbenzyl)-3-(3,5-dichloro-4-hydroxyphenyl)-1H-pyrazole-5-carboxamide]"
10,16.5,"CN(Cc1ccc(C(C)(C)C)cc1)C(=O)c1cc(-c2cc(Cl)c(O)c(Cl)c2)n[nH]1 [Compound 8, N-(4-tert-butylbenzyl)-3-(3,5-dichloro-4-hydroxyphenyl)-N-methyl-1H-pyrazole-5-carboxamide]"
